Where two headings read alike, the source gives them in different places.
What was measured:
[1] = system: patients with MM; settings: human, in vivo, iv; cited from earlier work
[2] = clinical; settings: human, in vivo
Experimental: (§3) Serial blood samples were collected on days 1 and 16 of cycle 1 and day 16 of cycle 2 as follows: predose, immediately post-dose, and then at 5, 15, and 30 min, and 1, 2, and 4 h post-dose. Plasma samples for PK studies were assayed using validated liquid chromatography/mass spectrometry with a lower limit of detection of 0.10 ng/ml [17].
(§4) Pharmacokinetic parameters were estimated by non-compartmental analysis using WinNonlin Enterprise Version 5.2 (Pharsight Inc., Mountain View, CA).

[3] = system: advanced solid tumors; assay: Antitumor activity, treatment response by RECIST 1.0; type: in vivo, human
Experimental: The primary objective of the phase I dose-escalation portion of the study was to determine the maximum tolerated dose (MTD) of carfilzomib up to a maximum planned dose (MPD) of 20/36 mg/m^2. The primary objective of the expansion (various tumor types) and phase II tumor-specific portions was to determine the disease control rate [DCR = complete response (CR) + partial response (PR) + stable disease (SD)] as defined by RECIST 1.0 [18] after four cycles of treatment at the MTD or MPD. Secondary objectives included pharmacokinetics (PK) and pharmacodynamics (PDn) of carfilzomib.
Once dose escalation was completed, an additional 11 evaluable patients with assorted tumor types could enroll in the expansion cohort to receive carfilzomib at the MTD/MPD. In the phase II tumor-specific portion of the study, cohorts of patients with NSCLC, SCLC, ovarian cancer, and renal cancer were to be treated at the MTD/MPD utilizing a Simon two-stage design. Tumor types included in the phase II tumor-specific cohorts were selected based on efficacy results from the phase I dose-escalation portion and preclinical data.
(§1) All patients who received at least one dose of study treatment were evaluable for the safety analysis. After the initiation of carfilzomib, adverse events (AEs) were evaluated at each visit. Patients completed a comprehensive neurologic evaluation and radiographic assessment of tumor burden using computerized tomography (CT) at baseline and every 8 weeks for the first 24 weeks, then every 12 weeks thereafter or at treatment discontinuation. Patients who received at least one cycle of treatment and had both baseline and post-baseline disease assessments were evaluable for efficacy. Treatment response was assessed according to RECIST 1.0 [18]. Patients with stable disease (SD) or an objective response (CR or PR) after two cycles continued treatment until disease progression or unacceptable toxicity.
Continuous and categorical data were summarized with descriptive statistics or frequencies and percentages, respectively. For the phase II tumor-specific portion, the Simon two-stage sample size calculation applied a null hypothesis objective response rate (ORR = CR + PR) of 2 % and an alternative hypothesis ORR of 15 %, with the type I error at 5 % and a power of 0.8. For stage 1, 11 evaluable patients were to be enrolled in each of the four solid tumor cohorts. […] Because there were multiple study sites, over enrollment was permitted.

[4] = system: human solid tumor xenograft model; design: method as in PMID 17616698; settings: consecutive-day dosing; cited from earlier work
[5] = system: proteasome chymotrypsin-like (CT-L) activity in whole blood and PBMCs; assay: Pharmacodynamics: proteasome CT-L activity, fluorogenic LLVY-AMC substrate assay; type: in vivo, human; settings: for Median proteasome inhibition / proteasome inhibition, range: day 1 of cycle 2
Experimental: Whole blood was collected on day 1 of the first two cycles prior to and 1 h after infusion for measurement of proteasome activity in whole blood and peripheral blood mononuclear cells (PBMCs). CT-L activity was assessed using a fluorogenic substrate assay with succinyl–Leu–Leu–Val–Tyr–AMC (LLVY) as previously described.

[6] = human, in vivo, 20 mg/m2
Experimental: as §3, §4

[7] = system: patients with advanced solid tumors; assay: Phase I dose escalation (3 + 3): DLT and MTD determination; type: in vivo
Experimental: Carfilzomib (Onyx Pharmaceuticals, Inc, South San Francisco, CA) was administered by intravenous infusion over 2–10 min on days 1, 2, 8, 9, 15, and 16 of a 28-day cycle. For the phase I dose-escalation portion, the starting dose in all cohorts for days 1 and 2 of cycle 1 was 20 mg/m^2, based on the tolerated dose identified in hematologic malignancies. On all remaining cycle 1 dosing days (days 8, 9, 15, and 16) and in all subsequent cycles, carfilzomib was administered at a dose of 20 mg/m^2 in cohort 1 (20/20 mg/m^2), 27 mg/m^2 in cohort 2 (20/27 mg/m^2), and 36 mg/m^2 in cohort 3 (20/36 mg/m^2). Stepped-up dosing in cycle 1 and dexamethasone premedication were adopted to abrogate fever, chills and/or rigors, and dyspnea, all of which were […] observed during initial therapy in MM trials. Dexamethasone 4 mg (intravenous or oral) was administered prior to each carfilzomib dose for the first cycle and during subsequent cycles when indicated. Upon completion of 12 treatment cycles, patients had the option of enrolling in an open-label extension study, PX-171-010 (NCT00884312).
(§2) The phase I dose-escalation portion of the study followed the standard 3 + 3 design. Patients were enrolled at two sites in sequential cohorts of 3–6 patients each to establish the MTD. The MTD was defined as the highest dose up to the MPD at which […] of six patients experienced treatment-related dose-limiting toxicities (DLT) during the first cycle. DLTs were defined as treatment-related ≥grade 2 neuropathy with pain, ≥grade 3 non-hematologic toxicity, grade 4 neutropenia or thrombocytopenia lasting 7 or more days, or thrombocytopenia with bleeding. Toxicity was graded according to NCI CTCAE v3.0 [19].

[8] = system: proteasome in PBMCs; design: method as in PMID 22761464; settings: 20/27 mg/m^2, patients with hematologic malignancies; cited from earlier work
[9] = system: solid tumor cell lines; design: method as in PMID 17616698; settings: 1-h pulse, replicating clinical pharmacokinetics; cited from earlier work
[10] = system: patients with advanced solid tumors; assay: Safety: adverse events graded by NCI CTCAE v3.0; type: in vivo
From the text: as §2, §1

[11] = 20 mg/m^2, one hour after administration
[12] = 27 mg/m^2, one hour after administration
[13] = 36 mg/m^2, one hour after administration

Q: What does the source list for `CC(C)C[C@H](NC(=O)[C@H](CCc1ccccc1)NC(=O)CN1CCOCC1)C(=O)N[C@@H](Cc1ccccc1)C(=O)N[C@@H](CC(C)C)C(=O)[C@@]1(C)CO1` [carfilzomib]?
A: tolerable dose [1]: 20/27; AUC(0-t) ([2]; 20 mg/m2, AUClast): 251 ± 92 ng·h/mL; clearance ([2]; 20 mg/m2, CL): 4380 mL/min; Cmax ([2]; 20 mg/m2, Cmax): 2390 ± 104 ng/mL; AUC(0-t) ([2]; 27 mg/m2, AUClast): 379 ± 24.8 ng·h/mL; clearance ([2]; 27 mg/m2, CL): 2500 mL/min; Cmax ([2]; 27 mg/m2, Cmax): 4230 ± 48.8 ng/mL; Vd ([2]; 27 mg/m2, V ss): 11.1 ± 4.45 L; half-life ([2]; 27 mg/m2, t 1/2): 21 min; AUC(0-t) ([2]; 36 mg/m2, AUClast): 594 ± 52.5 ng·h/mL; clearance ([2]; 36 mg/m2, CL): 1930 mL/min; Cmax ([2]; 36 mg/m2, Cmax): 5718 ± 46.5 ng/mL; Vd ([2]; 36 mg/m2, V ss): 9.33 ± 4.8 L; half-life ([2]; 36 mg/m2, t 1/2): 52.2 min; half-life ([2]; iv, half-life): < 60 min; PD as best response ([3]; expansion and phase II patients, 29/51, 20/36 mg/m^2): 56.9%; patients with SD for 6 months or longer ([3]; expansion and phase II tumor-specific cohorts, 20/36 mg/m^2): four; patients with SD after two cycles ([3]; expansion and phase II tumor-specific cohorts, 22 of 51 evaluable patients, 20/36 mg/m^2): 43.1%; PR or better ([3]; expansion and phase II tumor-specific cohorts, 51 evaluable patients, 20/36 mg/m^2, after four cycles or over the study period): No patients; reduction in tumor burden ([3]; one patient with renal cancer, 20/36 mg/m^2, after five cycles): > 80%; progressive disease (PD) ([3]; phase I dose-escalation portion, 12 evaluable patients): eight; confirmed partial response (PR) ([3]; phase I dose-escalation portion, 20/36 mg/m^2, 12 evaluable patients): two; antitumor activity compared with bortezomib or carfilzomib dosed on days 1 and 4 [4]: more effective antitumor activity; Median proteasome inhibition [5, 11]: 83.4%; proteasome inhibition, range [5, 11]: 82.9–85.5%; Median proteasome inhibition [5, 12]: 91.6%; proteasome inhibition, range [5, 12]: 79.0–93.2%; Median proteasome inhibition [5, 13]: 88.6%; proteasome inhibition, range [5, 13]: 54.7–99.4%; recovery of proteasome activity by the start of the second cycle ([5]; PBMCs): there was recovery; recovery of constitutive proteasome activity between cycles ([5]; whole blood): Minimal recovery; inhibition of proteasome CT-L activity ([5]; whole blood and PBMCs, one hour after administration on day 1 of cycle 2, all doses): at least 80%; AUClast [6]: 269 ± 61.7 ng·h/mL; CL [6]: 136 ± 52.8 L/h; Cmax [6]: 3410 ± 51.5 ng/mL; MPD recommended for the expansion and phase II tumor-specific portions ([7]; human, in vivo, iv, 28 days): 20/36; dose-limiting toxicities (DLT) ([7]; in vivo): no DLTs; maximum tolerated dose (MTD) ([7]; phase I dose-escalation portion, up to the MPD of 20/36 mg/m^2): No MTD was identified; proteasome inhibition [8]: > 90%; potency at killing solid tumor cell lines compared with bortezomib [9]: more potent than bortezomib; AE: fatigue ([10]; human, in vivo): 35.7%; AE: headache ([10]; human, in vivo): 42.9%; AE: hypokalemia ([10]; human, in vivo): 35.7%; patients who discontinued due to AEs ([10]; human, in vivo): 14.3%; patients who discontinued due to an AE ([10]; human, in vivo): 10.8%; patients who missed at least one carfilzomib dose due to AEs ([10]; human, in vivo): 29.2%; patients with carfilzomib dose reduced due to AEs of elevated blood creatinine/decreased CrCl ([10]; human, in vivo): 12.3%; carfilzomib dose reduced due to AEs ([10]; in vivo): No patients; deaths considered related to carfilzomib ([10]; on study or within 30 days of ending treatment): No deaths

— publication PMC3784064, “A phase I/II study of carfilzomib 2–10-min infusion in patients with advanced solid tumors” (Cancer Chemotherapy and Pharmacology, 2013)
